Source: patent US20070275925A1, “ASTHMA DIAGNOSIS AND THERAPY” (REGENTS OF THE UNIVERSITY OF CALIFORNIA, priority 2006, published 2007)
Entries after “also recorded” stand apart in the source; their conditions may differ.

System: epithelial brushings
Assay: Microarray gene expression in epithelial brushings, randomized placebo-controlled trial of inhaled fluticasone
Type: in vivo, human
Description: In three cross sectional studies and a clinical trial, epithelial brushings were collected by bronchoscopy from 42 subjects with asthma, 16 current smokers without asthma, and 28 healthy controls. Cross-sectional studies comprised 2 visits, the first for characterization and the second for bronchoscopy. The clinical trial was a 10 week, randomized, double-blind, placebo-controlled trial specifically designed to determine the effects of inhaled fluticasone (500 μg twice daily) on airway gene expression and to relate gene expression changes to improvements in lung function (FIG. 1). Bronchoscopy was performed at baseline and repeated 1 week after starting study drug. Thirty-five subjects had adequate baseline bronchoscopy and 32 had RNA available from epithelial brushings at both bronchoscopies. Lung function was measured at intervals over the 8-week treatment period. Epithelial RNA from a subset of the subjects studied by microarray here have been used in other PCR based gene expression studies performed by our group.^4 Additional information is provided in the supplementary appendix.
Brushings yielded 1,300,000±800,000 cells of which 97±3% were epithelial. For microarray analysis, […] total epithelial RNA was amplified using NuGen Ovation RNA amplification system. Then 2.75 μg sscDNA was hybridized to Affymetrix U133 plus 2.0 arrays (>54,000 probe sets coding for 38,500 genes). Array images were analyzed using Affymetrix GeneChip Expression Analysis Software. Bioconductor^5 was used for quality control (affyPLM algorithm), preprocessing (RMA algorithm), cluster analysis, and linear modeling.^5-7 Raw array data are available from the Gene Expression Omnibus public database (http://www.ncbi.nlm.nih.gov/geo/, accession number pending). Selected microarray findings were confirmed by real-time PCR, enzyme linked immunosorbent assay (ELISA) or immunohistochemistry. In vitro studies of the effects of interleukin-13 (IL-13) on expression of selected genes were performed using primary airway epithelial cells grown at an air-liquid interface (additional detail in supplementary appendix).
For between group comparisons, t-test, rank-sum test or ANOVA followed by pair-wise analyses with Sidak correction were used as appropriate. Correlation of mRNA copy number by PCR (log transformed for normality) and lung function was performed using Pearson correlation. STATA version 9 software was used (StataCorp, College Station Tex.), and p<0.05 was taken as statistically significant. In microarray analyses, differential gene expression was assessed using linear models (controlling for age and gender). For between group comparisons, a Bonferroni corrected p-value<0.05 was used to identify differentially expressed genes. For the placebo-controlled trial, changes in gene expression from baseline to post-intervention were calculated and the mean changes in the fluticasone and placebo groups were compared. A two-fold change (either higher or lower in the fluticasone group as compared to placebo), was used to identify differentially expressed genes. Microarray analyses were performed using Bioconductor open source software^5 in the R statistical environment.
Protocol: This was a 6 visit, 10 week, randomized, double-blind, placebo-controlled trial specifically designed to determine the effects of inhaled fluticasone on airway gene expression and to relate those gene expression changes to improvements in lung function. After a one-week run-in/characterization period, subjects were randomized to receive 2 puffs BID of fluticasone propionate (250 μg/puff) or matching placebo for 8 weeks, followed by a one week run-out. Subjects were randomized in blocks designed to yield a greater number of subjects randomized to fluticasone as compared to placebo in order to maximize our ability to relate gene expression to lung function improvements within the intervention group. […]

[1] = fluticasone group as compared to placebo group, baseline to 1 week
[2] = fluticasone group, baseline to 1 week, asthmatics

In the case of CCC(=O)O[C@]1(C(=O)SCF)[C@H](C)C[C@H]2[C@@H]3C[C@H](F)C4=CC(=O)C=C[C@]4(C)[C@@]3(F)[C@@H](O)C[C@@]21C [fluticasone, fluticasone propionate], the “CST1 gene expression in airway epithelial brushing from asthmatics treated with inhaled fluticasone” value (additional gene profiling experiments) is reported as “upregulated”, the “CST1 reduction by array” value (fluticasone arm as compared to the placebo arm) is reported as 2 fold and the “PRR4 gene expression change with fluticasone” value (fluticasone arm as compared to the placebo arm, asthmatic airway epithelial cells) is reported as “only modestly reduced; also recorded: no significant change”. The “Fold-difference Combined, 227061_at (CDNA FLJ44429 fis)” value [1] was 2.0 fold, the “Fold-difference Combined, 228854_at (Transcribed locus)” value [1] was 10.5 fold and the “Fold-difference Combined, 228858_at (Transcribed locus)” value [1] was 2.8 fold. The “Fold-difference Combined, 230782_at (CDNA FLJ33419 fis)” value [1] was 2.2 fold, the “Fold-difference Combined, 231262_at (Transcribed locus)” value [1] was 2.8 fold and the “Fold-difference Combined, 244677_at” value [1] was 2.3 fold. The “Fold-difference Combined, C6” value [1] was 2.2 fold, the “Fold-difference Combined, C14orf78” value [1] was 2.1 fold and the “Fold-difference Combined, CLCA1” value [1] was −2.4 fold. The “Fold-difference Combined, CST1” value [1] was −2.1 fold, the “Fold-difference Combined, FKBP51” value [1] was 4.4 fold and the “Fold-difference Combined, FXYD1” value [1] was 2.1 fold. For the same molecule, the “Fold-difference Combined, GAS1” value [1] was 3.3 fold, the “Fold-difference Combined, GPR109B” value [1] was 2.4 fold and the “Fold-difference Combined, HBA2” value [1] was 2.7 fold. For the same molecule, the “Fold-difference Combined, HBB” value [1] was 2.1 fold, the “Fold-difference Combined, HIF3A” value [1] was 2.7 fold and the “Fold-difference Combined, KLF9” value [1] was 2.4 fold. For the same molecule, the “Fold-difference Combined, LOC157381” value [1] was 2.1 fold, the “Fold-difference Combined, MUC13” value [1] was −2.0 fold and the “Fold-difference Combined, PHACTR3” value [1] was 3.2 fold. For the same molecule, the “Fold-difference Combined, POSTN” value [1] was −2.1 fold, the “Fold-difference Combined, PPP1R16B” value [1] was 2.4 fold and the “Fold-difference Combined, SERPINB2” value [1] was −2.9 fold. For the same molecule, the “Fold-difference Combined, TFCP2L1” value [1] was 3.0 fold, the “Fold-difference Combined, TSC22D3” value [1] was 2.5 fold and the “Fold-difference Combined, TU3A” value [1] was 2.8 fold. The “Fold-difference Combined, UBD” value [1] was −2.1 fold, the “Fold-difference Combined, UBE2H” value [1] was 2.1 fold and the “Fold-difference Combined, WIPI49” value [1] was 2.0 fold. For the same molecule, the “Fold-difference Flovent, 227061_at (CDNA FLJ44429 fis)” value [2] was 1.6 fold, the “Fold-difference Flovent, 228854_at (Transcribed locus)” value [2] was 7.3 fold and the “Fold-difference Flovent, 228858_at (Transcribed locus)” value [2] was 2.4 fold. For the same molecule, the “Fold-difference Flovent, 230782_at (CDNA FLJ33419 fis)” value [2] was 2.1 fold, the “Fold-difference Flovent, 231262_at (Transcribed locus)” value [2] was 2.4 fold and the “Fold-difference Flovent, 244677_at” value [2] was 1.8 fold. For the same molecule, the “Fold-difference Flovent, C6” value [2] was 1.6 fold, the “Fold-difference Flovent, C14orf78” value [2] was 1.8 fold and the “Fold-difference Flovent, CLCA1” value [2] was −2.7 fold. The “Fold-difference Flovent, CST1” value [2] was −2.4 fold, the “Fold-difference Flovent, FKBP51” value [2] was 3.6 fold and the “Fold-difference Flovent, FXYD1” value [2] was 1.4 fold. For the same molecule, the “Fold-difference Flovent, GAS1” value [2] was 2.7 fold, the “Fold-difference Flovent, GPR109B” value [2] was 1.9 fold and the “Fold-difference Flovent, HBA2” value [2] was 3.0 fold. The “Fold-difference Flovent, HBB” value [2] was 2.5 fold, the “Fold-difference Flovent, HIF3A” value [2] was 2.7 fold and the “Fold-difference Flovent, KLF9” value [2] was 2.2 fold. The “Fold-difference Flovent, LOC157381” value [2] was 1.7 fold, the “Fold-difference Flovent, MUC13” value [2] was −1.6 fold and the “Fold-difference Flovent, PHACTR3” value [2] was 3.1 fold. For the same molecule, the “Fold-difference Flovent, POSTN” value [2] was −2.1 fold, the “Fold-difference Flovent, PPP1R16B” value [2] was 2.1 fold and the “Fold-difference Flovent, SERPINB2” value [2] was −2.5 fold. The “Fold-difference Flovent, TFCP2L1” value [2] was 3.1 fold, the “Fold-difference Flovent, TSC22D3” value [2] was 2.0 fold and the “Fold-difference Flovent, TU3A” value [2] was 2.3 fold. The “Fold-difference Flovent, UBD” value [2] was −2.0 fold, the “Fold-difference Flovent, UBE2H” value [2] was 2.0 fold and the “Fold-difference Flovent, WIPI49” value [2] was 1.7 fold.
